This is an account of results in patent publication US4954637A, “Certain maleimide-N-alkylenecarboxylate-ortho-nitrobenzenesulfonic acid esters and derivatives useful for coupling biological materials” (Cetus Corporation, priority 1987, dated 1990).

Where two headings read alike, the source gives them in different places.

One data set deals with polylysine. Conditions: over a 5 minute period; pH 7.4, room temperature.
The subject of a further data set is cells. The conditions noted are these: vs biotin-p-nitrophenyl ester; fluoresceinated avidin; cited from earlier work.
In data set [1] the test system is bovine serum albumin (BSA). The conditions noted are these: for Concentration of Ester: diluted aliquot. On the procedure: A total of 22 mg ([…]) of BSA (of molecular weight 66,296) was dissolved in 2.0 ml of 0.01M phoshate buffer at pH 7.5 to yield a total amino concentration of 1.0×10^-2 moles per liter (assuming 59 lysines/BSA molecule). A calculated amount mg. […] The reaction was carried out at room temperature. […]
It was found at 15 minutes of reaction time that 2.6×10^-3 moles/1 of the ester had reacted and thus 25.9% of the 59 ε-amino groups of BSA were presumably substituted. Thus, the product contained 16 mal-sac groups per molecule.

The next data set deals with streptavidin. The arrangement: species or system Streptomyces avidinii. The conditions noted are these: over the period measured; pH 7.4, room temperature. On the procedure:
A total of 0.26 mg (4.3×10^-3 μmoles) of streptavidin purified from Streptomyces avidinii by the method of Hoffman et al., PNAS. 77, 4666-4668 (1980) was dissolved in 1.0 ml of phosphate buffered saline at pH 7.4 to yield a total amine concentration of 6.93×10^-5 M (16NH2 /streptavidin). […] Good separation was achieved between the protein and the excess HNSA and unreacted HNSA ester. […] In this case 79% of the amino groups on streptavidin (12.9 out of 16.0) reacted.

In data set [2] the test system is Horseradish peroxidase (HRP). Conditions: over a 30 minute period; pH 7.0, room temperature.
The subject of another data set is biotinylated polylysine. Description: Coupling of mal-sac-HNSA to biotinylated polylysine, then to HRP-SH. The conditions noted are these: over a 30 minute period; pH 7.4, room temperature.
Another data set in a line: Solubility in water. It is filed as physicochemical.
A short description of data set [3]: Stability in water and on storage. It is filed as physicochemical. Conditions: no nucleophiles added.
The format of data set [4] is physicochemical. Conditions: 50 μl of 4.8N NaOH added to aliquot in 1 ml pH 7.0 buffer. On the procedure: About 0.5 mg of the purified mal-sac HNSA ester from Example IA was dissolved in 1 ml of distilled water.
The difference between the post-base and initial free HNSA concentration represents the concentration of ester. From the actual concentration of ester the amount of ester to be added to the protein solution to achieve the desired degree of substitution can be calculated.

Data set [5] relates to sheep red blood cells (SRBC). Description: Labelling of sheep red blood cells, Coulter EPICS V Cytofluorometer. It is filed as cell-based. The conditions noted are these: excitation at 360 nm. On the procedure: Dansyl-sac-HNSA ester was prepared as described in Example 1A using molar equivalents of HNSA, dicyclohexylcarbodiimide and dansyl-ε-aminocaproic acid (from Sigma Chemicals). For use in coupling to sheep red blood cells (SRBC) the dansyl-sac-HNSA ester (50 mg) was prepared in 7 ml of 0.28M cacodylate buffer, pH 6.9.
Sheep red blood cells were washed 4 times (400×g. 8 minutes) in G-PBS buffer (5% α-D-glucose w/v in PBSCa-Mg). To 1 ml of packed red blood cells was added the 7 ml of dansyl-sac-HNSA ester dropwise with gentle mixing for 10 minutes at room temperature. The reaction was done in foil-wrapped glassware to protect against photodecomposition. Following the reaction the cells were washed in cold G-PBS buffer containing 1% heat inactivated (56° C., 30 minutes) FCS (fetal calf serum) until the supernatants were colorless (a minimum of 4 washes).
The dansyl-sac-HNSA labelled SRBC were monitored using a Coulter EPICS V Cytofluorometer immediately after labeling and at 24 hours. […] This translates to an increase in intensity 720 times over unlabeled cells.

Another data set relates to bovine serum albumin. Conditions: pH 8.5; vs same ester of N-hydroxysuccinimide; cited from earlier work.

Procedure for biotinylated polylysine: Biotinylated Polylysine (0.6 ml; 73,000 D average mol. wt.) was adjusted to pH 7.4 with 0.015 ml of 2.5N NaOH. Approximately 5 mg of mal-sac-HNSA was added to the biotinylated polylysine and stirred at room temperature. Ten μl aliquots were removed from the mixture at timed intervals and diluted into 1.0 ml of 0.01M phosphate buffer at pH 7.0. The spectrum of each diluted aliquot was measured and the absorbance at 406 nm recorded. A total of 50 μl of 4.8N NaOH solution was then added to each aliquot, mixed, and the spectrum retaken.
After 30 minutes of incubation time, the reaction was stopped using a Sephadex G-25 column, and the high molecular weight (biotin)4-polylysine-(sac-mal)18 was well separated from excess HNSA and unreacted mal-sac-HNSA.

For `O=C1N[C@H]2[C@H](CS[C@H]2CCCCC(=O)Oc2ccc(S(=O)(=O)O)cc2[N+](=O)[O-])N1` [Biotin-HNSA Ester], in the data set on polylysine, the reaction rate result is “essentially linear”. Moreover, the increase in fluorescence entry in the data set on cells is recorded as “much larger increase in fluorescence”.
Consider `O=C(CCCCCN1C(=O)C=CC1=O)Oc1ccc(S(=O)(=O)O)cc1[N+](=O)[O-]` [mal-sac-HNSA, N-maleimido-6-aminocaproylHNSA], for which the “Concentration of Ester” value in data set [1] (0 minutes) is listed as 1.56 × 10^-4 moles/1; in data set [1] (5 minutes), 1.16 × 10^-4 moles/1; in [1] (9 minutes), 1.03 × 10^-4 moles/1; in data set [1] (14 minutes), 1.11 × 10^-4 moles/1. For the same molecule, the ester reacted in [1] (15 minutes of reaction time) was 2.6×10^-3 moles/1. The reaction rate entry is listed as “essentially linear” in the data set on streptavidin; “essentially linear” in [2]; “essentially linear” in the data set on biotinylated polylysine; “linear” in the data set with avidin (30 minutes, FIG. 3). Besides, the solubility in water entry in “Solubility in water” is reported as “dissolve fully in water”. Further, in data set [3], the stability in water result is “stable in water for several hours”. In addition, the hydrolysis by hydroxide result in data set [4] is on record as “rapidly hydrolyzed”. For the same molecule, the “Percent Ester Remaining” value in the data set with avidin (10 minutes, room temperature) worked out at 81%.
For the molecule `CN(C)c1cccc2c(S(=O)(=O)NCCCCCC(=O)Oc3ccc(S(=O)(=O)O)cc3[N+](=O)[O-])cccc12` [dansyl-sac-HNSA], the “increase in fluorescence intensity over unlabeled cells” value in data set [5] turned out to be 720 times.
As for `O=C(CCCCCNc1ccc([N+](=O)[O-])cc1[N+](=O)[O-])Oc1ccc(S(=O)(=O)O)cc1[N+](=O)[O-]` [N-2,4-dinitrophenyl-6-aminocaproic acid ester of HNSA], the conjugation efficiency entry with bovine serum albumin is “more efficient than the same ester of N-hydroxysuccinimide”.
